{"source": "patent US7868005B2", "about": "“Pyrazinyl substituted piperazine-piperidines with CXCR3 antagonist activity” (Schering Corporation, priority 2005, dated 2011)"}
{"molecular_target": "T1, human CXCR3 (N-delta 4) (Homo sapiens, UniProt P49682)", "T1 construct": "CD8 leader (N); Flag; expressed in transfected cells; membranes prepared", "T1 sequence (P49682 5-368 limits assumed)": "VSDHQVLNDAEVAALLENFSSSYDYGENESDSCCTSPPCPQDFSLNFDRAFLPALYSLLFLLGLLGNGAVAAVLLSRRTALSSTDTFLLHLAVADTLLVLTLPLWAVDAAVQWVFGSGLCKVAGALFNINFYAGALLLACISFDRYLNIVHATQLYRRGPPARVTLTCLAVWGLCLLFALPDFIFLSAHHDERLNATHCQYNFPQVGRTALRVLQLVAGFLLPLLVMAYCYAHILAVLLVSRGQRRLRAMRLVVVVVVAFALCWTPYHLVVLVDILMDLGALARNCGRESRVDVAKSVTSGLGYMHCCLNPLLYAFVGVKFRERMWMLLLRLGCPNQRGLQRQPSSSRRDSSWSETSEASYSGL", "assay": "Human CXCR3 (N-delta 4) Scintillation Proximity Assay (SPA), [125I] IP-10 binding to Ba/F3-hCXCR3 membranes", "conditions": "IC50 rating, Table 1; read-out: IC50", "units": {"IC50": "nM"}}
{"smiles": "CC[C@H]1CN(c2nc(N)c(C(=O)NCCO)nc2Cl)CCN1C1CCN(Cc2ccc(Cl)cc2C(N)=O)CC1", "note": "[compound 127]", "IC50": "< 25"}
{"smiles": "CC[C@H]1CN(c2nc(N)c(C(=O)NCCO)nc2Cl)CCN1C1CCN(Cc2c(F)cc(F)c(F)c2O)CC1", "note": "[compound 201]", "IC50": "> 100"}
{"smiles": "CC[C@H]1CN(c2nc(N)c(C(=O)NC(=N)NC)nc2Cl)CCN1C1CCN(Cc2ccc(OC(F)(F)F)cc2)CC1", "note": "[compound 391]", "IC50": "< 25"}
{"smiles": "CC[C@H]1CN(c2nc(N)c(C(N)=O)nc2Cl)CCN1C1CCN(Cc2ccc(Cl)cc2C2OC(=O)NC2=O)CC1", "note": "(some centres unmarked) [compound 407]", "IC50": "> 100"}
{"smiles": "CC[C@H]1CN(c2nc(N)c(C(N)=O)nc2Cl)CCN1C1CCN(Cc2ccc(Cl)cc2S(N)(=O)=O)CC1", "note": "[compound 401]", "IC50": "< 25"}
{"smiles": "CC[C@H]1CN(c2nc(N)c(C(=O)NCCO)nc2Cl)CCN1C1CCN([C@H](C(=O)OC)c2ccc(Cl)cc2)CC1", "note": "[compound 192]", "IC50": "> 100"}
{"smiles": "CC[C@H]1CN(c2nc(N)c(C(=O)NC)nc2Cl)CCN1C1CCN(C(=O)c2ccc(Cl)cc2NC)CC1", "note": "[compound 366]", "IC50": "> 100"}
{"smiles": "CC[C@H]1CN(c2nc(N)c(C(=O)NCCO)nc2Cl)CCN1C1CCN(Cc2ccc(C#CC(C)(C)O)cc2)CC1", "note": "[compound 144]", "IC50": "< 25"}
{"smiles": "CC[C@H]1CN(c2nc(N)c(C(N)=O)nc2Cl)CCN1C1CCN(Cc2ccc(Cl)cc2CCN)CC1", "note": "[compound 6]", "IC50": "< 25"}
{"smiles": "CC[C@H]1CN(c2nc(N)c(C(=O)NC3CC3)nc2Cl)CCN1C1CCN(Cc2ccc(Cl)cc2)CC1O", "note": "(some centres unmarked) [compound 98]", "IC50": "> 100"}
{"smiles": "CC[C@H]1CN(c2nc(N)c(C(N)=O)nc2Cl)CCN1C1CCN(C(=O)c2ccc(Cl)cc2CC(N)=O)CC1", "note": "[compound 357]", "IC50": "> 100"}
{"smiles": "CC[C@H]1CN(c2nc(N)c(C(N)=O)nc2Cl)CCN1C1CCN([C@H](CO)c2ccc(Cl)cc2)CC1", "note": "[compound 49]", "IC50": "> 100"}
{"smiles": "CC[C@H]1CN(c2ncc(C(N)=O)nc2C)CCN1C1CCN([C@@H](C(=O)OC)c2ccc(Cl)cc2)CC1", "note": "[compound 463]", "IC50": "< 25"}
{"smiles": "CC[C@H]1CN(c2nc(N)c(C(N)=O)nc2Cl)CCN1C1CCN(C(CNS(C)(=O)=O)c2ccc(Cl)cc2)CC1", "note": "(some centres unmarked) [compound 58]", "IC50": "> 100"}
{"smiles": "CC[C@H]1CN(c2nc(N)c(C(=O)NCCO)nc2Cl)CCN1C1CCN(Cc2cc(F)c(Cl)cc2OCCNS(C)(=O)=O)CC1", "note": "[compound 165]", "IC50": "< 25"}
{"smiles": "CC[C@H]1CN(c2nc(N)c(C(N)=O)nc2Cl)CCN1C1CCN(Cc2ccc(Cl)cc2C2NC(=O)NC2=O)CC1", "note": "(some centres unmarked) [compound 405]", "IC50": "> 100"}
{"smiles": "CC[C@H]1CN(c2nc(N)c(C(=O)NC3CCOC3=O)nc2Cl)CCN1C1CCN(Cc2ccc(Cl)cc2)CC1", "note": "(some centres unmarked) [compound 277]", "IC50": "< 25"}
{"smiles": "CC[C@H]1CN(c2nc(N)c(C(=O)NCCO)nc2Cl)CCN1C1CCN(C(=O)c2ccc(F)c(F)c2F)CC1", "note": "[compound 351]", "IC50": "25 to 100"}
{"smiles": "CC[C@H]1CN(c2nc(N)c(C(N)=O)nc2Cl)CCN1C1CCN(Cc2ccc(Cl)cc2C(C)(C)CO)CC1", "note": "[compound 19]", "IC50": "< 25"}
{"smiles": "CCC(O)CNC(=O)c1nc(Cl)c(N2CCN(C3CCN(C(=O)c4ccc(Cl)cc4)CC3)[C@@H](CC)C2)nc1N", "note": "(some centres unmarked) [compound 337]", "IC50": "< 25"}
{"smiles": "CC[C@H]1CN(c2nc(N)c(C(=O)NCCNS(=O)(=O)C(F)(F)F)nc2Cl)CCN1C1CCN(Cc2ccc(Cl)cc2)CC1", "note": "[compound 238]", "IC50": "< 25"}
{"smiles": "CC[C@H]1CN(c2nc(N)c(C(=O)NCCO)nc2Cl)CCN1C1CCN(C(=O)c2ccc(C#CC(C)(C)O)cc2)CC1", "note": "[compound 346]", "IC50": "25 to 100"}
{"smiles": "CC[C@H]1CN(c2nc(N)c(C(=O)NC3CC3)nc2Cl)CCN1C1CCN(Cc2ccc(Cl)cc2C(=O)OC)CC1", "note": "[compound 90]", "IC50": "< 25"}
{"smiles": "CC[C@H]1CN(c2nc(N)c(C(=O)NC)nc2Cl)CCN1C1CCN(Cc2ccc(C#N)cc2)CC1", "note": "[compound 64]", "IC50": "< 25"}
{"smiles": "CCOC(=O)/N=C(\\N)c1cc(Cl)ccc1CN1CCC(N2CCN(c3nc(N)c(C(=O)NCCO)nc3Cl)C[C@@H]2CC)CC1", "note": "[compound 114]", "IC50": "< 25"}
{"smiles": "CC[C@H]1CN(c2nc(N)c(C(N)=O)nc2Cl)CCN1C1CCN(Cc2ccc(Cl)cc2NC(=O)C(C)O)CC1", "note": "(some centres unmarked) [compound 377]", "IC50": "25 to 100"}
